EC50 data for 44 molecules are collected here from patent US10538532B2, “Hepatitis B antiviral agents” (ENANTA PHARMACEUTICALS, INC., priority 2016, dated 2020).

One may read the EC50 as the concentration giving half of the maximal effect.

Bounds are passed on as bounds.

One assay deals with HBV. Kind of assay: HepAD38 antiviral assay: reduction of viral product accumulation (virion DNA by qPCR, HBsAg or HBeAg by ELISA). The class given is cell-based, hepatitis B virus. The conditions noted are these: HepAD38 cells, five days after compound addition; concentration reducing viral product accumulation by 50% relative to no drug controls; read-out: HepAD38 EC50. The procedure:
Methods: HepAD38 cells are maintained as previously reported (Ladner et al, Antimicrob. Agents Chemother. 1997, […], 1715). Briefly, cells are passaged upon attaining confluency in DMEM/F12 media in the presence of 10% FBS, Penn/Strep, 250 μg/mL G418, and 1 ug/ml tetracycline. Novel compounds are screened by first washing cells three times with PBS to remove tetracycline, and plating in 96 well plates at 35,000 cells/well. Compounds dissolved in DMSO are then diluted 1:200 into wells containing cells. Five days after compound addition, material is harvested for analysis. For an extended 8 day analysis, cells are plated and treated as described above, but media and compound are refreshed on d2 and d5 post initial treatment.
On harvest day, virion DNA is obtained by lysing with Sidestep Lysis and Stabilization Buffer and then quantified via quantitative real time PCR. Commercially available ELISA kits are used to quantitate the viral proteins HBsAg (Alpco) or HbeAg (US Biological) by following the manufacturer's recommended protocol after diluting samples to match the linear range of their respective assays. Irrespective of readout, compound concentrations that reduce viral product accumulation in the cell lysates or supernatants by 50% relative to no drug controls (EC50) are reported; EC50 ranges are as follows: A<0.1 μM; B 0.1-0.4 μM; C>0.4 μM.
(In general: In qPCR the cycle at which signal appears reflects the starting amount.)
Regarding `O=C(Nc1cc(F)c(F)c(F)c1)c1ccc(Cl)c(S(=O)(=O)C2CC3O[C@H]3C2)c1` (some centres unmarked) [Example 86], the half-maximal effective concentration (EC50) was above 400 nM.

Take `O=C(Nc1cc(F)c(F)c(F)c1)c1ccc(Cl)c(S(=O)(=O)C2CC3O[C@H]3C2)c1` (some centres unmarked) [Example 87]: the 50% effective concentration (EC50) is 100 to 400 nM.

As to `C[C@]1(O)C2CCC1C[C@H](S(=O)(=O)c1cc(C(=O)Nc3cc(F)c(F)c(F)c3)ccc1Cl)C2` [Example 251], the EC50 was above 400 nM.

The assay is the same for the next values; noted with them: Hepatitis B virus, HePAD38, 120 h, HepAD38 cells, five days after compound addition; concentration reducing viral product accumulation by 50% relative to no drug controls; read-out: HepAD38 EC50.
Consider `N#Cc1cc(NC(=O)c2ccc(Cl)c(S(=O)(=O)[C@H]3CC[C@H](O)CC3)c2)ccc1F` [Example 41], for which the EC50 is above 400 nM.

Consider `O=C(Nc1cc(F)c(F)c(F)c1)c1ccc(Cl)c(S(=O)(=O)[C@H]2CC[C@H](F)CC2)c1` [Example 21], for which the EC50 was in the range of 100 to 400 nM.

Consider `CC(=O)OC[C@]1(OC(C)=O)CC2CC[C@@H](C1)[C@H]2S(=O)(=O)c1cc(C(=O)Nc2cc(F)c(F)c(F)c2)ccc1Cl` [Example 185], for which the EC50 was below 100 nM.

For the molecule `O=C(Nc1cc(F)c(F)c(F)c1)c1ccc(Cl)c(S(=O)(=O)C2C3CCCC2CC(O)(CO)C3)c1` (centres unmarked) [Example 133], the EC50 lay in the range of 100 to 400 nM.

Regarding `NCC(=O)NC[C@]1(O)C2CCC1C[C@@H](S(=O)(=O)c1cc(C(=O)Nc3cc(F)c(F)c(F)c3)ccc1Cl)C2` [Example 350], the EC50 was 100 to 400 nM.

For `O=C(Nc1cc(F)c(F)c(F)c1)c1ccc(Cl)c(S(=O)(=O)[C@H]2C3C[C@@H]4C[C@H](C3)C[C@@H]2C4)c1` [Example 176], the EC50 is above 400 nM.

Consider `O=C(Nc1cc(F)c(F)c(F)c1)c1ccc(Cl)c(S[C@H]2C3CC[C@H]2C[C@](O)(CO)C3)c1` [Example 134], for which the EC50 was in the range of 100 to 400 nM.

`O=C(Nc1cc(F)c(F)c(F)c1)c1ccc(Cl)c(S(=O)(=O)C2(CCO)CCCCC2)c1` [Example 89]: the concentration giving a half-maximal response (EC50) was 100 to 400 nM.

Regarding `NC[C@]1(O)C2CCC1C[C@@H](S(=O)(=O)c1cc(C(=O)Nc3cc(F)c(F)c(F)c3)ccc1Cl)C2` [Example 347], the EC50 was in the range of 100 to 400 nM.

Turning to `O=C(Nc1cc(F)c(F)c(F)c1)c1ccc(Cl)c(S(=O)(=O)CC2CC3CCC2C(O)C3O)c1` (centres unmarked) [Example 243], the EC50 is below 100 nM.

Turning to `O=C1CC(S(=O)(=O)c2cc(C(=O)Nc3cc(F)c(F)c(F)c3)ccc2Cl)C1` [Example 33], the EC50 was above 400 nM.

For `O=C(Nc1cc(F)c(F)c(F)c1)c1ccc(Cl)c(S(=O)(=O)[C@H]2C3CC[C@H]2C[C@](O)(/C=[N+](\[O-])Cc2ccccc2)C3)c1` [Example 199], the EC50 was in the range of 100 to 400 nM.

For `O=C(Nc1cc(F)c(F)c(F)c1)c1ccc(Cl)c(S(=O)(=O)[C@H]2C3CCC2C[C@H](CO)C3)c1` [Example 106], the EC50 was below 100 nM.

In the case of `C#C[C@@]1(O)CC2CC[C@@H](C1)[C@H]2S(=O)(=O)c1cc(C(=O)Nc2cc(F)c(F)c(F)c2)ccc1Cl` [Example 161], the EC50 was below 100 nM.

Turning to `CC(C)([C@H]1C[C@@H](O)C1)S(=O)(=O)c1cc(C(=O)Nc2cc(F)c(F)c(F)c2)ccc1Cl` [Example 118], the EC50 lay in the range of 100 to 400 nM.

As to `O=C(Nc1cc(F)c(F)c(F)c1)c1ccc(Cl)c(S(=O)(=O)[C@H]2C3CC[C@H]2C[C@](O)(COC/C=C/c2ccncc2)C3)c1` [Example 326], the EC50 was above 400 nM.

Turning to `CC(C)[C@H](NC(=O)OC(C)(C)C)C(=O)O[C@H]1CC[C@H](S(=O)(=O)c2cc(C(=O)Nc3cc(F)c(F)c(F)c3)ccc2Cl)CC1` [Example 76], the EC50 lay within 100 to 400 nM.

Turning to `O=C(Nc1cc(F)c(F)c(F)c1)c1ccc(Cl)c(S(=O)(=O)[C@H]2C3CC[C@H]2C[C@](O)(C(=O)O)C3)c1` [Example 131], the EC50 was above 400 nM.

For `CN1CCC(S(=O)(=O)c2cc(C(=O)Nc3cc(F)c(F)c(F)c3)ccc2Cl)CC1` [Example 96], the EC50 is above 400 nM.

Consider `O=C(Nc1cc(F)c(F)c(F)c1)c1ccc(Cl)c(S(=O)(=O)[C@H]2C3CC[C@H]2C[C@@](O)(C#Cc2ccncc2)C3)c1` [Example 170], for which the EC50 was above 400 nM.

For `[N-]=[N+]=Nc1ccc(C(=O)Nc2cc(F)c(F)c(F)c2)cc1S(=O)(=O)[C@H]1C2CC[C@H]1C[C@]1(CO1)C2` [Example 145], the EC50 was 100 to 400 nM.

Take `O=C(Nc1cc(F)c(F)c(F)c1)c1ccc(Cl)c(S(=O)(=O)[C@H]2C3CC[C@H]2C[C@H](/C=N/O)C3)c1` [Example 229]: the EC50 is below 100 nM.

Turning to `O=C(Nc1cc(F)c(F)c(F)c1)c1ccc(Cl)c(S(=O)(=O)[C@H]2C3CC[C@H]2C[C@](O)(C#Cc2ccccc2)C3)c1` [Example 167], the EC50 was 100 to 400 nM.

As to `O=C1OC[C@@]2(CC3CC[C@@H](C2)[C@H]3S(=O)(=O)c2cc(C(=O)Nc3cc(F)c(F)c(F)c3)ccc2Cl)O1` [Example 155], the EC50 was below 100 nM.

For the molecule `O=C(Nc1cc(F)c(F)c(F)c1)c1ccc(Cl)c(S(=O)(=O)[C@H]2CC[C@@](O)(CO)CC2)c1` [Example 110], the EC50 fell in the range of 100 to 400 nM.

With `O=C(Nc1cc(F)c(F)c(F)c1)c1ccc(Cl)c(S(=O)(=O)[C@H]2CC[C@@H](CO)CC2)c1` [Example 114], the EC50 was 100 to 400 nM.

As for `N#Cc1cc(NC(=O)c2ccc(Cl)c(S(=O)(=O)[C@H]3CC[C@H](O)CC3)c2)ccn1` [Example 56], the EC50 was above 400 nM.

Consider `O=C(Nc1cc(F)c(F)c(F)c1)c1ccc(Cl)c([S+]([O-])[C@H]2C3C[C@@H]4C[C@H](C3)C[C@@H]2C4)c1` (some centres unmarked) [Example 175], for which the EC50 is above 400 nM.

On to `O=C(Nc1cc(F)c(F)c(F)c1)c1ccc(Cl)c(S(=O)(=O)[C@H]2C3CC[C@H]2C[C@]2(C3)OC(=O)[C@@H](O)[C@@H]2O)c1` [Example 338], for which the 50% effective concentration (EC50) was above 400 nM.

With `C/[N+]([O-])=C\[C@]1(O)CC2CC[C@@H](C1)[C@H]2S(=O)(=O)c1cc(C(=O)Nc2cc(F)c(F)c(F)c2)ccc1Cl` [Example 196], the EC50 was below 100 nM.

With `O=C(Nc1cc(F)c(F)c(F)c1)c1ccc(Cl)c(S[C@H]2CC[C@H](O)CC2)n1` [Example 61], the EC50 is above 400 nM.

For `C=C1C2CCC1CC(S(=O)(=O)c1cc(C(=O)Nc3cc(F)c(F)c(F)c3)ccc1Cl)C2` (centres unmarked) [Example 207], the EC50 was above 400 nM.

As to `O=C(Nc1cc(F)c(F)c(F)c1)c1ccc(Cl)c(S[C@@H]2C[C@H](O)C[C@H](O)C2)c1` [Example 78], the EC50 is above 400 nM.

On to `O=C(Nc1cc(F)c(F)c(F)c1)c1ccc(Cl)c(S(=O)(=O)[C@H]2C3CCC2C[C@@H](O)C3)c1` [Example 44], for which the EC50 lay within 100 to 400 nM.

As to `O=C(Nc1cc(F)c(F)c(F)c1)c1ccc(Cl)c(S(=O)(=O)C2(CCCO)CCCCC2)c1` [Example 88], the EC50 is above 400 nM.

As to `CCOC(=O)C(C)S(=O)(=O)c1cc(C(=O)Nc2cc(F)c(F)c(F)c2)ccc1Cl` (centres unmarked) [Example 94], the EC50 was above 400 nM.

Take `CC(C)(C)OC(=O)N1CCC[C@H]1C(=O)NC[C@]1(O)C2CCC1C[C@@H](S(=O)(=O)c1cc(C(=O)Nc3cc(F)c(F)c(F)c3)ccc1Cl)C2` [Example 365]: the 50% effective concentration (EC50) is below 100 nM.

For `O=C(Nc1cc(F)c(F)c(F)c1)c1ccc(Cl)c(S(=O)(=O)[C@H]2CC3CCC(C2)[C@]3(O)CC(O)CO)c1` (some centres unmarked) [Example 361], the EC50 is below 100 nM.

For the molecule `C=CCO/N=C/[C@]1(O)CC2CC[C@@H](C1)[C@H]2S(=O)(=O)c1cc(C(=O)Nc2cc(F)c(F)c(F)c2)ccc1Cl` [Example 204], the EC50 is below 100 nM.

The same assay, now with this note: Hepatitis B virus, HePAD38, 120 h, read-out: HepAD38 EC50.
As for `O=C(Nc1cc(F)c(F)c(F)c1)c1ccc(Cl)c(S(=O)(=O)C2CC3CCC(C2)N3)c1` (centres unmarked) [Example 266], the EC50 is 100 to 400 nM.

As for `C[Si](C)(C)C#C[C@@]1(O)CC2CC[C@@H](C1)[C@H]2S(=O)(=O)c1cc(C(=O)Nc2cc(F)c(F)c(F)c2)ccc1Cl` [Example 160], the EC50 was 100 to 400 nM.
